Measurements published in patent publication US20240226083A9, “MEDICAMENT FOR TREATMENT AND/OR PROPHYLACTIC TREATMENT OF CANCERS” (Belina Pharma AB, priority 2019, published 2024).

What was measured:
all tumour types = assay: Swedish nation-wide register study, cancer specific survival of antihistamine users vs non-users: across tumour types; type: in vivo, human; conditions: for effect of use on survival, all tumour types: users vs non-users, in words
Method: (§1) Both peri- and post-diagnostic antihistamine use was analyzed, using Cox regression models, as well as different subgroups of patients with regard to age, gender (as a proxy for sex) and tumor status.
(§2) Material and methods Linking the Cancer Registry with the Drug Prescription Registry and Cause of Death Registry the survival of over 500 000 cancer patients with cancer in the breast-, prostate, ventrikel, pancreas, kidney, colo-rectal, lung, uterus, ovary, brain, melanoma, lymph gland and bone marrow was studied between 2005-2014.
(§3) Use of the six major antihistamines was established using the Swedish Prescribed Drug Register, a record of all dispensed prescribed pharmaceuticals in Sweden since July 1st 2005. To be included in the registry at least 2 weeks of prescription is required. Prescription free antihistamine use, non-dispensed doses, or use of other, less common, types of antihistamines is here considered non-use. Causes of death were obtained from the Swedish Cause of Death Register, a database where all deaths have been recorded since 1952. Data was pseudo-anonymized and the study was approved by the Regional Ethics Board.
(§4) We analyzed both the peri- and cumulative post-diagnostic use of antihistamines among […]. Peri-diagnostic use was a proxy for ever-use, and is here defined as use within six months pre-diagnosis and six months post-diagnosis, where the main antihistamine (in terms of dispensed defined daily doses, or DDDs) used by each individual during this time was identified. The analysis was done using a Cox regression model with time to even or censoring in years as a time scale. Subgroup analyses were made for groups based on age and gender (as a proxy for sex).
(§5) For the cumulative post-diagnostic antihistamine use analysis, mortality rates for antihistamine users were compared to those of non-users through a Cox regression model allowing for time varying covariates, and survival time was measured in years since diagnosis. This allowed for a single individual to provide data as both a non-user and user of different antihistamines. The impact of the cumulative DDDs was assessed after log transformation of the DDDs plus one3. Cox regression analyses were stratified for patient age at diagnosis, tumor size and node status (T and N status, respectively). A lag-time analysis was performed as described by Tamim et al. and Richardson et al. Statistical analyses were performed using R version XXX6.
(§6) Information on stage, socio-economic factors, tumour therapies, and prognostic tumour factors are not present in the national registries.
(§7) The confidence interval (95% CI) indicates the level of uncertainty around the measure of effect. A 95% confidence interval means that the confidence interval covers the true value in 95 of 100 studies performed. […]

breast cancer [1] = conditions: earlier filing, in words; cited from earlier work
breast cancer [2] = assay: Swedish nation-wide register study, cancer specific survival of antihistamine users vs non-users: breast cancer; type: in vivo, human; conditions: in words
Method: as §1, §2
Use of the six major antihistamines was established using the Swedish Prescribed Drug Register, a record of all dispensed prescribed pharmaceuticals in Sweden since July 1st 2005. To be included in the registry at least 2 weeks of prescription is required. […] Causes of death were obtained from the Swedish Cause of Death Register, a database where all deaths have been recorded since 1952. […]
We analyzed both the peri- and cumulative post-diagnostic use of antihistamines among melanoma patients. […]
(§8) For the cumulative post-diagnostic antihistamine use analysis, mortality rates for antihistamine users were compared to those of non-users through a Cox regression model allowing for time varying covariates, and survival time was measured in years since diagnosis. […] The impact of the cumulative DDDs was assessed after log transformation of the DDDs plus one3. […]

[3] = system: patients with gastric cancer; assay: Swedish nation-wide register study, cancer specific survival of antihistamine users vs non-users: gastric cancer; type: in vivo, human; conditions: for effect of use on gastric cancer survival: users vs non-users, in words
Method: as §1, §2, §3, §4, §8

[4] = system: patients with ovarian cancer; assay: Swedish nation-wide register study, cancer specific survival of antihistamine users vs non-users: ovarian cancer; type: in vivo, human; conditions: for effect of use on ovarian cancer survival: users vs non-users, in words
Method: as §1, §2, §3, §4, §5, §6, §7

[5] = system: patients with pancreatic cancer; assay: Swedish nation-wide register study, cancer specific survival of antihistamine users vs non-users: pancreatic cancer; type: in vivo, human; conditions: for effect of use on pancreatic cancer survival: users vs non-users, in words
Method: as §1, §2, §3, §4, §8

[6] = system: patients with uterus cancer; assay: Swedish nation-wide register study, cancer specific survival of antihistamine users vs non-users: uterine cancer; type: in vivo, human; conditions: in words
[7] = system: lympho-hematopoetic malignancies; assay: Swedish nation-wide register study, cancer specific survival of antihistamine users vs non-users: lympho-hematopoetic malignancies; type: in vivo, human; conditions: in words
Method: (§9) For the cumulative post-diagnostic antihistamine use analysis, mortality rates for antihistamine users were compared to those of non-users through a Cox regression model allowing for time varying covariates, and survival time was measured in years since diagnosis. This allowed for a single individual to provide data as both a non-user and user of different antihistamines. The impact of the cumulative DDDs was assessed after log transformation of the DDDs plus one3. Cox regression analyses were stratified for patient age at diagnosis, tumor size and node status (T and N status, respectively). […]

[8] = system: patients with prostate cancer; assay: Swedish nation-wide register study, cancer specific survival of antihistamine users vs non-users: prostate cancer; type: in vivo, human; conditions: in words
Method: as §9

[9] = system: patients with brain cancer; assay: Swedish nation-wide register study, cancer specific survival of antihistamine users vs non-users: brain cancer; type: in vivo, human; conditions: in words
[10] = system: patients with colo-rectal cancer; assay: Swedish nation-wide register study, cancer specific survival of antihistamine users vs non-users: colorectal cancer; type: in vivo, human
[11] = system: patients with lung cancer; assay: Swedish nation-wide register study, cancer specific survival of antihistamine users vs non-users: lung cancer; type: in vivo, human
[12] = system: patients with Hodgkin's disease; assay: Swedish nation-wide register study, cancer specific survival of antihistamine users vs non-users: Hodgkin's disease; type: in vivo, human

**Q.** For `CN1CCC[C@@H]1CCO[C@](C)(c1ccccc1)c1ccc(Cl)cc1` [Clemastine, clemastine], which “effect of use on survival, all tumour types” value (all tumour types) is on record?
**A.** The value was “consistently showed a worse survival”.

**Q.** What does the source list for `CC(C)(C)c1ccc(C(=O)CCCN2CCC(OC(c3ccccc3)c3ccccc3)CC2)cc1` [Ebastine, ebastine]?
**A.** effect on breast cancer survival (WO 2016/116438) (breast cancer [1]): positive effect; effect of use on breast cancer survival (breast cancer [2]): increased breast cancer survival

**Q.** Which results are given for `O=C(O)COCCN1CCN(C(c2ccccc2)c2ccc(Cl)cc2)CC1` (stereo not shown) [Ceterizine, cetirizine]?
**A.** effect of use on gastric cancer survival [3]: better survival; effect of use on ovarian cancer survival [4]: better survival; effect of use on pancreatic cancer survival [5]: better survival

**Q.** Which “course of survival curves relative to non-users” value (all tumour types; FIGS. 7 to 18, in words) does the source give for `CCOC(=O)N1CCC(=C2c3ccc(Cl)cc3CCc3cccnc32)CC1` [loratadine] here?
**A.** The value was “most survival curves became parallel to non-users suggesting a long time curative effect”.

**Q.** And the “effect of use on ovarian cancer survival” value [4]?
**A.** The value was “survival was better”.

**Q.** For `CC(C)(C(=O)O)c1ccc(C(O)CCCN2CCC(C(O)(c3ccccc3)c3ccccc3)CC2)cc1` (stereo not shown) [fexofenadine], which “effect of use on survival, all tumour types” value (all tumour types) is on record?
**A.** Its value is “insignificant”.

**Q.** For `Clc1ccc2c(c1)CCc1cccnc1C2=C1CCNCC1` [desloratadine], which “effect of use on uterine cancer survival” value [6] is on record?
**A.** The value was “no effect”.

**Q.** What about the “effect of use on survival in lympho-hematopoetic malignancies” value [7] of the same compound?
**A.** The value was “no effect”.

**Q.** And the “effect of use on prostate cancer survival” value [8]?
**A.** The value was “consistently beneficial effect”.

**Q.** What about the “effect of use on brain cancer survival” value [9] of the same compound?
**A.** Its value is “no effect”.

**Q.** And the “5 year survival chance increased by (colorectal cancer)” value ([10]; colorectal cancer, baseline 5 year survival about 65% 2016, FIG. 1)?
**A.** The value was 15%.

**Q.** And the “effect of use on colorectal cancer survival” value ([10]; users vs non-users, in words)?
**A.** The value was “consistently beneficial effect”.

**Q.** What about the “5 year survival chance increased by (lung cancer)” value ([11]; lung cancer, baseline 5 year survival about 20% 2016, FIG. 1) of the same compound?
**A.** The value was 15%.

**Q.** And the “effect of use on lung cancer survival” value ([11]; users vs non-users, in words)?
**A.** Its value is “consistently beneficial effect”.

**Q.** And the “curative effect suggested by survival curves” value (all tumour types; said cancers, survival curves with follow up parallel to non-treated, FIGS. 7 to 18)?
**A.** The value was 10-20%.

**Q.** And the “5 year survival chance increased by (gastric cancer)” value ([3]; gastric cancer, baseline 5 year survival 25% 2016, FIG. 1)?
**A.** Its value is 30%.

**Q.** What about the “effect of use on gastric cancer survival” value [3] of the same compound?
**A.** Its value is “consistently beneficial effect”.

**Q.** And the “5 year survival chance increased by (Hodgkin's disease)” value ([12]; Hodgkin's disease, baseline 5 year survival about 86% 2016, FIG. 1)?
**A.** Its value is 17%.

**Q.** What about the “effect of use on Hodgkin's disease survival” value ([12]; users vs non-users, in words) of the same compound?
**A.** Its value is “strong survival benefit”.

**Q.** And the “5 year survival chance increased by (ovarian cancer)” value ([4]; ovarian cancer, baseline 5 year survival about 55% 2016, FIG. 1)?
**A.** The value was 17%.

**Q.** And the “effect of use on ovarian cancer survival” value [4]?
**A.** Its value is “consistently beneficial effect”.

**Q.** What about the “5 year survival chance increased by (pancreatic cancer)” value ([5]; pancreatic cancer, baseline 5 year survival about 8% 2016, FIG. 1) of the same compound?
**A.** Its value is 35%.

**Q.** And the “effect of use on pancreatic cancer survival” value [5]?
**A.** Its value is “consistently beneficial effect”.

**Q.** And the “effect on breast cancer survival (WO 2016/116438)” value (breast cancer [1])?
**A.** Its value is “positive effect”.

**Q.** And the “effect of use on breast cancer survival” value (breast cancer [2])?
**A.** The value was “consistently beneficial effect”.
